Data: article PMC8891364, “Synthesis, and docking studies of novel heterocycles incorporating the indazolylthiazole moiety as antimicrobial and anticancer agents” (Scientific Reports, 2022)
≈ marks a conversion by molar mass, not a printed value. Where “and” joins values, the source holds several entries; their conditions need not be identical. Equal values may be shown once.

Experiments:
Streptococcus mutans = experiment: Microbial-biofilm inhibition, tissue-culture plate technique (TCP); format: cell-based; settings: 25 µg/mL, 24 h
Method: (§1) The activity of the newly synthesized compounds against microbial biofilm formation was estimated through the tissue-culture plate technique (TCP) as follows: the three above-mentioned pathogens, Streptococcus mutans, Pseudomonas aeruginosa, and Candida albicans were cultivated overnight in LB broth at 37 °C. Afterward, 200 µL of each diluted organism (10^6 CFU/mL) was inoculated separately (in triplicate) into 96-well tissue culture plates and incubated overnight at 37 °C. The free planktonic cells were removed, after the incubation period, by flipping the plate and washing each well three times with phosphate-buffered-saline (PBS), pH 7.1. To each well, 175 µL of fresh LB broth was added along with 25 µL of the tested compound (25 µg/mL final concentrations). The plates were reincubated at 37 °C for another 24 h, washed with PBS buffer pH 7.1 three times, and dried for 5 min at 50 °C. The formed biofilm was stained with crystal violet solution (0.1% w/v) for 5 min. The excess stain was decanted, and the stained biofilm was solubilized with 200 µL of glacial acetic acid (30% v/v), where the developed blue color was measured at 590 nm. The results are expressed as relative inhibition (%) compared to untreated groups (control). Controls were prepared by culturing the three pathogens on LB medium without any tested compounds.

Candida albicans = experiment: as above; format: cell-based; settings: 24 h, relative to untreated
Method: as §1

Pseudomonas aeruginosa = experiment: as above; format: cell-based; settings: 25 µg/mL, 24 h
Method: as §1

[1] = test system: Pseudomonas aeruginosa ATCC 27853; experiment: Antimicrobial microtiter-plate MIC assay; format: cell-based; settings: 24 h, 37 °C; for MIC: Pseudomonas aeruginosa, ATCC27853
Method: (§2) The antimicrobial activity of the newly synthesized compounds (2–9) was evaluated against three model pathogenic microorganisms as follows: Streptococcus mutans ATCC 25175 (Gram-positive bacterium); Pseudomonas aeruginosa ATCC 27853 (Gram-negative bacterium); and Candida albicans ATCC 10231 (fungi-like unicellular organism). After cultivating the three tested pathogens overnight in LB broth, 100 µL of each tested organism (10^6 CFU/mL) was added separately to 100 µL of the serially diluted test compounds (5–80 µg) in a 96-well tissue culture plate and incubated at 37 °C for 24 h. Eventually, microbial growth was measured at 600 nm, and the results are presented in the form of MIC (Table 4). Two antibacterial reference drugs, ampicillin and ciprofloxacin, and one antifungal drug, clotrimazole, were incorporated into the experiments.

[2] = test system: Streptococcus mutans ATCC 25175; experiment: Antimicrobial microtiter-plate MIC assay; format: cell-based; settings: for MIC Streptococcus mutant: 24 h, 37 °C; for MIC: Streptococcus mutans, ATCC25175, 24 h, read-out: MIC Streptococcus mutant
Method: as §2

[3] = test system: Candida albicans ATCC 10231; experiment: Antimicrobial microtiter-plate MIC assay; format: cell-based; settings: for MIC Candida albicans / MIC: 24 h, 37 °C; for MIC: ATCC10231
Method: as §2

Caco-2 cells [4] = experiment: MTT antitumor assay, colon carcinoma cells; format: cell-based; settings: for IC50 Caco-2 / IC50: MTT, 48 h; for SI Caco-2: ratio of IC50 of normal cells (HFB-4) versus IC50 of tumor cells; for IC50: Homo sapiens, Caco-2, 48 h
Method: (§3) The human melanocytes (HFB-4) cells, hepatoma (HepG-2) cells, and colon carcinoma (Caco-2) cells were obtained from American Type Culture Collection (ATCC, USA). The cytotoxicity of the newly synthesized compounds (at various concentrations) was determined using the 3-[4, 5-dimethylthiazol]-2, 5-diphenyltetrazolium bromide method (MTT assay)[59] against HFB-4 cells (normal human melanocytes), HepG-2 cells (hepatoma), and Caco-2 cells (colon carcinoma). Normal and cancer cells (1.0 × 10^4) were cultured in sterile 96-well microplates, and incubated for 24 h in DMEM (Lonza, USA) supplemented with 10% fetal bovine serum (Gibco, USA) for HFB-4 and Caco-2 cells or in an RPMI-1640 medium (Lonza, USA) supplemented with 10% FBS for HepG-2 cells. After 24 h of incubation, different doses of the tested synthesized compounds ([…]) were added in triplicate to all cells and incubated for another 48 h in 5% CO2. After washing the cells 3 times with fresh media, to remove dead cells and debris, a solution of MTT (Sigma -Aldrich, 0.5 mg/mL) was added to each well and further incubated for 2–5 h at 37 °C. Afterward, the MTT solution was decanted and 200 µL of DMSO was added. The optical density was measured at 570 nm using a microplate reader (BMG LabTech, Germany), where the cells’ relative viability (%) was estimated using the following equation: viability of cells (%) = [A1 − A0/AU − A0] × 100, where A1 is the absorbance of the test compound, A0 is the absorbance of the blank, and AU is the absorbance of untreated cells (control).
(§4) The antitumor activity of the synthesized compound was determined by calculating the IC50 value (half maximal inhibitory concentration) using Graph Pad Prism 6.0 software. The value of IC50 indicates the derivative concentration that causes 50% cell death, whereas the value of the selectivity index (SI), indicating the ratio of the IC50 value of normal cells versus the IC50 value of tumor cells, was also included as reported by[60],[61].

HFB-4 cells = experiment: MTT cytotoxicity assay, normal human melanocytes; format: cell-based; settings: 48 h; for IC50: Melanocyte
Method: as §3, §4

HepG-2 cells = experiment: MTT antitumor assay, hepatoma cells; format: cell-based, human; settings: for IC50 HepG-2 / IC50: MTT, 48 h; for SI HepG-2: ratio of IC50 of normal cells (HFB-4) versus IC50 of tumor cells; for IC50: Homo sapiens, HepG2, 48 h
Method: as §3, §4

β-catenin gene = experiment: qRT-PCR gene expression in HepG-2 and Caco-2 cells; format: cell-based, human; settings: IC50 concentrations, 2 days
Method: (§5) The effects of the potent antitumor derivatives (4, 6, and 8) on the expression level of some tumor regulating genes were elucidated through quantitative real-time PCR (qRT- PCR) and compared to 5-fluorouracil (5-FU) as a reference antitumor drug. Five genes were assessed, including the tumor oncogene (Bcl-2), tumor suppressor gene (p53), matrix metalloproteinase gene (MMP-9), vascular endothelial growth factor gene (VEGF), and beta-catenin protein gene (β-catenin), in HepG-2 and Caco-2 cells, before and after treatment for 2 days with IC50 concentrations for compounds 4, 6, and 8. Following the extraction of total RNA from the tested cells, using the Gene JET RNA Purification Kit (Thermo Scientific, USA), cDNA synthesis was performed according to the cDNA Synthesis Kit protocol (Thermo Scientific, USA). qRT PCR was performed using the SYBR green kit and specific primers (Forward/Reverse) as follows: 5′-[…]-3'/5'-TCG GTCTCCTAAAAGCAGGC-3′ for the Bcl-2 gene, 5′-TAACAGTTCCTGCATG GG CG GC-3′/5′-[…]-3′ for p53, 5'-CTGCGTATTTCCATT CATC-3'/5'-CCTTGGGTCAGGTTTAGAG-3' for the MMP-9 gene, 5'-GGCTTTACT GCTGTACCTCC-3'/5'-CAAATGCTTTCTCCGCTCT-3' for the VEGF gene, and 5'-CATATGCGGCTGCTG TTCTA-3'/5'-CCGAAAG CCGTTTCTTGTAG-3' for the β-catenin gene. The upregulation and/or downregulation of the expression of the tested genes in Caco-2 and HepG-2 cells was determined by using the equation 2^−ΔΔCT[60].

Bcl-2 gene = experiment: qRT-PCR gene expression in HepG-2 and Caco-2 cells; format: cell-based, human; settings: for gene expression of Bcl-2: HepG-2 and Caco-2 cells, IC50 concentrations, 2 days, compared to 5-FU and untreated cells; for downregulation of Bcl-2 expression, fold: compared to control cells
Method: as §5

VEGF gene = experiment: qRT-PCR gene expression in HepG-2 and Caco-2 cells; format: cell-based, human; settings: IC50 concentrations, 2 days, compared to 5-FU and untreated cells
Method: as §5

MMP-9 gene = experiment: qRT-PCR gene expression in HepG-2 and Caco-2 cells; format: cell-based, human; settings: IC50 concentrations, 2 days, compared to 5-FU and untreated cells
Method: as §5

Caco-2 cells [5] = experiment: Cell cycle arrest analysis by flow cytometry; format: cell-based, human; settings: 48 h, IC50 concentrations, vs untreated control
Method: The cell cycle arrest of treated Caco-2 cells was evaluated through flow cytometry (Partec, Germany) in comparison with untreated cells and treated cells with 5-FU as a positive control[60],[62]. […] After washing the cells three times, the cells were fixed by adding 1 mL of 70% cold ethanol dropwise with a gentle vortex. Caco-2 cells were washed three times again with cold PBS and incubated in 1 mL of PBS containing 5 μg/mL RNase A (Sigma-Aldrich) for 1 h at 37 °C. Then 10 μL of PI (Sigma-Aldrich) was added to cells at a final concentration of 1 mg/mL in deionized water and left at 4 °C until analysis in the dark. The cell cycle of Caco-2 cells before and after treatment was analyzed by FACS using Cell Quist and Mod Fit software by reading at 488 nm.

SMILES | antibiofilm formation activity Streptococcus mutans (in words) (Streptococcus mutans) | IC50 Caco-2 (Caco-2 cells [4]) [µg/mL] | SI Caco-2 (Caco-2 cells [4]) | IC50 HepG-2 (HepG-2 cells) [µg/mL] | SI HepG-2 (HepG-2 cells) | expression of the β-catenin gene (β-catenin gene) | MIC [1] [µg/mL] | MIC [2] [µg/mL] | MIC ([3]; Candida albicans) [µg/mL] | IC50 (Caco-2 cells [4]) [µg/mL] | IC50 (HFB-4 cells) [µg/mL] | gene expression of Bcl-2 (Bcl-2 gene) | downregulation of Bcl-2 expression, fold (Bcl-2 gene) | gene expression of VEGF (VEGF gene) | gene expression of MMP-9 (MMP-9 gene) | IC50 (HepG-2 cells) [µg/mL] | apoptotic phase (sub-G1) population (Caco-2 cells [5]) | synthesis (S) phase population (Caco-2 cells [5]) | also measured
N#CC1=C(N)N(c2ccc(S(N)(=O)=O)cc2)c2nc(N3NC4=C(CCCC4)C3c3ccccc3)sc2C1c1ccccc1 (centres unmarked) [Compound 3, 4-(5-amino-6-cyano-7-phenyl-2-(3-phenyl-1,3,4,5,6,7-hexahydro-2H-indazol-2-yl)thiazolo[4,5-b]pyridin-4(7H)-yl) benzenesulfonamide] | had antibiofilm formation activities | 7.74 ± 0.81 (≈ 12.7 µM) | 7.18 ± 0.20 | 7.72 ± 0.38 (≈ 12.7 µM) | 7.20 ± 0.20 | – | – | – | – | – | – | – | – | – | – | – | – | – | biofilm inhibition Streptococcus mutans (Streptococcus mutans; relative to untreated): around 64%; biofilm inhibition Candida albicans (Candida albicans; 25 µg/mL): 69%; biofilm inhibition activity Pseudomonas aeruginosa (in words) (Pseudomonas aeruginosa): high biofilm inhibition activity; MIC Pseudomonas aeruginosa [1]: 18.29 ± 2.114 µg/mL (≈ 30.1 µM); MIC Pseudomonas aeruginosa ([1]; listed as derivative 3): 18.29 µg/mL (≈ 30.1 µM); MIC Streptococcus mutant [2]: 11.12 ± 0.4232 µg/mL (≈ 18.3 µM); MIC Streptococcus mutant ([2]; listed as derivative 3): 11.2 µg/mL (≈ 18.4 µM); MIC Candida albicans [3]: 40.74 ± 0.5511 µg/mL (≈ 67 µM); MIC Candida albicans ([3]; listed as compound 3): 40.74 µg/mL (≈ 67 µM); antifungal activity as share of clotrimazole activity ([3]; Candida albicans): 36%; IC50 HFB-4 (HFB-4 cells): 55.59 ± 1.58 µg/mL (≈ 91.5 µM)
O=c1[nH]cc(F)c(=O)[nH]1 [Compound 5-FU, 5-fluorouracil, reference compound] | – | – | – | – | – | stimulated its expression | – | – | – | – | – | – | – | – | – | – | – | – | –
NNC(=O)c1c(N)sc2sc(N3NC4=C(CCCC4)C3c3ccccc3)nc12 (centres unmarked) [Compound 6, 5-amino-2-(3-phenyl-1,3,4,5,6,7-hexahydro-2H-indazol-2-yl)thieno[3,2-d] thiazole-6-carbohydrazide] | – | – | 25.6 and 25.59 ± 0.03 | – | 21.8 and 21.75 ± 0.03 | significantly suppressed | 58.5 ± 2.27 (≈ 142 µM) | 39.58 ± 0.348 (≈ 95.9 µM) | 57.3 ± 1.32 (≈ 139 µM) | 5.21 ± 0.22 (≈ 12.6 µM) | 133 ± 4.18 (≈ 323 µM) | significantly downregulated | more than threefold | significantly downregulated | significantly downregulated | 6.12 ± 0.19 (≈ 14.8 µM) | becomes detectable after treatment | decreased | inhibition at 25 µg/mL (Candida albicans; Candida albicans): 61%
N#CCc1nn(N)c2nc(N3NC4=C(CCCC4)C3c3ccccc3)sc12 (centres unmarked) [Compound 8, 2-(1-amino-5-(3-phenyl-1,3,4,5,6,7-hexahydro-2H-indazol-2-yl)-1H-pyrazolo [3,4-d]thiazol-3-yl)acetonitrile] | had antibiofilm formation activities | 5.89 ± 0.38 (≈ 15.6 µM) | 26.08 ± 0.30 | 5.86 ± 0.34 (≈ 15.5 µM) | 26.23 ± 0.30 | significantly suppressed | 53 ± 2.18 (≈ 141 µM) | 15.8 ± 0.205 (≈ 41.8 µM) | 56.2 ± 1.24 (≈ 149 µM) | ~5.9 (≈ 15.6 µM) | 154 ± 1.76 (≈ 407 µM) | significantly downregulated | more than threefold | significantly downregulated | significantly downregulated | ~5.9 (≈ 15.6 µM) | becomes detectable after treatment | decreased | SI Caco-2 (Caco-2 cells [4]; listed as Derivative 8): about 26; SI HepG-2 (HepG-2 cells; listed as Derivative 8): about 26
